The values that follow come from ChEMBL document CHEMBL3091320, “6-(4-Pyridyl)pyrimidin-4(3H)-ones as CNS penetrant glycogen synthase kinase-3β inhibitors” (Bioorg Med Chem Lett, 2013).

The nature of series [1]: Clearance in rat microsomes. In kind it is ADME, Microsome.
A further series deals with Rattus norvegicus. The series can be described thus: Reduction in tau protein phosphorylation in Wistar rat prefrontal cortex at 100 mg/kg, ip after 15 mins to 2 hrs by western blot analysis relative to vehicle-treated control. In kind it is functional. Also on record: scale not given: the % may be the effect or the level left. Particulars: route intraperitoneal.
The nature of series [2]: Permeability co-efficient in Wistar rat brain at 30 mg/kg, ip measured at 0.25 hrs. The format is ADME, organism-based. Also on record: dose 30 mg/kg, route intraperitoneal.
A short description of series [3]: Inhibition of CYP1A (unknown origin). The format is ADME, Homo sapiens.
Another series deals with Brain. Description: Drug uptake in Wistar rat brain at 30 mg/kg, ip measured at 0.25 hrs. In kind it is ADME, organism-based. Also on record: dose 30 mg/kg, route intraperitoneal. Particulars: in vivo.
Series [4] deals with Glycogen synthase kinase-3 beta (Homo sapiens, UniProt P49841). The series can be described thus: Inhibition of human recombinant GSK3beta using prephosphorylated GS1 peptide as substrate after 1 hr by liquid scintillation spectrometry.

Where only a bound is given, the exact number is not on record here.

Chain of Glycogen synthase kinase-3 beta (P49841 whole entry): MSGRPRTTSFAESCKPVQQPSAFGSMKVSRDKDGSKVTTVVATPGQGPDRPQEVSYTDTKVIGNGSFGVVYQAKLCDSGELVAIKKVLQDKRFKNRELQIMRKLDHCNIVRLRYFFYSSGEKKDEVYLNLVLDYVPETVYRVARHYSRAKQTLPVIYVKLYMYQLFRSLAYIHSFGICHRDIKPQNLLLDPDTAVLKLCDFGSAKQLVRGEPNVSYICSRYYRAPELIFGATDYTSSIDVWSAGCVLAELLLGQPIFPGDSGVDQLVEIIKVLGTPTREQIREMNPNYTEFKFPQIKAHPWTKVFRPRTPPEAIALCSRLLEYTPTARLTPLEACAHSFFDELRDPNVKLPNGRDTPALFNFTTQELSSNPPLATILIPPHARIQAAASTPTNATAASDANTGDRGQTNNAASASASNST

In series [1], `Cn1c(NCC(=O)c2ccccc2)nc(-c2ccncc2)cc1=O` yielded a CL of 172 µL/min/mg. Also, the Activity in the series with Rattus norvegicus turned out to be 24%. Moreover, the Kp at 0.25 h in series [2] amounted to 1.15. Moreover, the concentration for half-maximal inhibition (IC50) in series [3] was 5700 nM; in series [4], 8.9 nM. The Drug uptake in the series on Brain is on record as 11.2 uM/ml.
In the case of `Cn1c(NCC(=O)c2ccc(F)cc2)nc(-c2ccncc2)cc1=O`, the CL in series [1] worked out at 166 µL/min/mg. For the same compound, the IC50 was determined as 10900 nM in series [3] and 52 nM in series [4].
Taken in the same sequence, the figures for `Cn1c(NCC(=O)c2cccc(Cl)c2)nc(-c2ccncc2)cc1=O` were 262 µL/min/mg, 670 nM and 13 nM.
On the same counts, the results for `Cc1cccc(C(=O)CNc2nc(-c3ccncc3)cc(=O)n2C)c1` are 262 µL/min/mg, 2200 nM and 38 nM.
On the same counts, the results for `Cn1c(NCC(=O)c2cccc(C#N)c2)nc(-c2ccncc2)cc1=O` are 133 µL/min/mg, over 53300 nM and 13 nM.
For `Cc1nc(-c2ccncc2)cc(=O)[nH]1`, the IC50 in series [4] was 3000 nM.
On the same count and under the same terms, as for `CCCCc1nc(-c2ccncc2)cc(=O)[nH]1`, the figure is 1300 nM; as for `CC(C)c1nc(-c2ccncc2)cc(=O)[nH]1`, 2100 nM.
The same measure, in the same setting: to `CC(C)Cc1nc(-c2ccncc2)cc(=O)[nH]1` belongs 2400 nM; to `O=c1cc(-c2ccncc2)nc(-c2ccccc2)[nH]1`, 1800 nM.
On the same count and under the same terms, as for `O=c1cc(-c2ccncc2)nc(Cc2ccccc2)[nH]1`, the figure is 1300 nM; as for `O=c1cc(-c2ccncc2)nc(CCc2ccccc2)[nH]1`, 8900 nM; as for `O=c1cc(-c2ccncc2)nc(CCCc2ccccc2)[nH]1`, 500 nM.
Take `Cn1c(CCCc2ccccc2)nc(-c2ccncc2)cc1=O`: in series [4], the half-inhibitory concentration (IC50) is 90 nM.
On the same count and under the same terms, as for `CCn1c(CCCc2ccccc2)nc(-c2ccncc2)cc1=O`, the figure is 1900 nM.
Same read-out and setting: as for `CCCn1c(CCCc2ccccc2)nc(-c2ccncc2)cc1=O`, the figure is 9800 nM.
The same measure, in the same setting: to `O=c1cc(-c2ccncc2)nc(CCCc2ccccc2)n1Cc1ccccc1` belongs 2200 nM; to `Cn1c(OCCc2ccccc2)nc(-c2ccncc2)cc1=O`, 200 nM.
Consider `Cn1c(NCCc2ccccc2)nc(-c2ccncc2)cc1=O`, for which the half-maximal inhibitory concentration (IC50) in series [4] came to 70 nM.
Still for that read-out and setting: as for `Cn1c(NCCC2CCCCC2)nc(-c2ccncc2)cc1=O`, the figure is 39 nM.
Still for that read-out and setting: as for `Cn1c(NCC(O)c2ccccc2)nc(-c2ccncc2)cc1=O` (configuration not stated), the figure is 23 nM.
Same read-out and setting: to `Cn1c(N(CCCCN)CCc2ccccc2)nc(-c2ccncc2)cc1=O` belongs 130 nM; to `Cn1c(N(CCCCCN)CCc2ccccc2)nc(-c2ccncc2)cc1=O`, 150 nM.
Turning to `Cn1c(NCC(=O)c2ccccc2F)nc(-c2ccncc2)cc1=O`, the CL in series [1] was determined as 158 µL/min/mg. Moreover, the concentration for half-maximal inhibition (IC50) in series [3] is 3800 nM; in series [4], 27 nM.
Taken in the same sequence, the figures for `Cn1c(NCC(=O)c2cccc(F)c2)nc(-c2ccncc2)cc1=O` were 207 µL/min/mg, 4200 nM and 25 nM.
